The text below walks through data of article PMC11133327, “Discovery of potent antimycobacterial agents targeting lumazine synthase (RibH) of Mycobacterium tuberculosis” (Scientific Reports, 2024).

Type in all cases: binding
For assay [1], the target named is T1, lumazine synthase (RibH) (Mycobacterium tuberculosis, UniProt P9WHE9). The assay is described as follows: […]; also riboflavin displacement ([…] at […]).
Assay [2] addresses T1, lumazine synthase (RibH). The assay is described as follows: […]; also riboflavin displacement ([…] at […]). This is another data set of the same source.
The target in assay [3] is T1, lumazine synthase (RibH). The assay is described as follows: biochemical.
Assay [4] concerns the target T1, lumazine synthase (RibH). The assay is described as follows: […]; also riboflavin displacement ([…] at […]). The source holds these as a separate data set.

T1 sequence (P9WHE9 whole entry): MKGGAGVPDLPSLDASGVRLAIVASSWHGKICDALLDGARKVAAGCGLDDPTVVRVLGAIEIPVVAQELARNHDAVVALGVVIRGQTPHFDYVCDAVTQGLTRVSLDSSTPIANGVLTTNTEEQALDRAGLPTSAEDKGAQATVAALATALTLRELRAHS

As to `Cc1ccc(N=C2NC(=O)C(=Cc3ccc([N+](=O)[O-])o3)S2)cc1` [A52, 5-((5-nitrofuran-2-yl)methylene)-2-(p-tolylimino)thiazolidin-4-one], in assay [1], the affinity, expressed as Kd, was 48 nM.

On to `O=C1NC(=Nc2ccccc2)SC1=Cc1ccc([N+](=O)[O-])o1` [A10, 5-((5-nitrofuran-2-yl)methylene)-2-(phenylimino)thiazolidin-4-one], for which the dissociation constant Kd (as a rule, the free concentration of one partner at which half of the binding sites on the other are occupied at equilibrium, for simple one-to-one binding) in assay [2] amounted to 69 nM.

In the case of `Cc1cc2nc3c(=O)[nH]c(=O)nc-3n(C[C@H](O)[C@H](O)[C@H](O)CO)c2cc1C` [riboflavin], the Kd in assay [3] stood at 86 nM. Regarding `O=C1NC(=Nc2ccc(Cl)cc2)SC1=Cc1ccc([N+](=O)[O-])o1` [A39, 2-((4-chlorophenyl)imino)-5-((5-nitrofuran-2-yl)methylene)thiazolidin-4-one], the Kd in assay [4] was 2.3 nM.
